Source: patent US10046052B2, “Method and formulation for cold treatment in adults and children with increased safety” (priority 2010, dated 2018)
Read-outs that look alike come from different tables or passages of the source.

Test system: patients with cold, cough and other symptoms of respiratory infection (Upper Respiratory Infection, URI/cold)
Source text: Representative Samples of Clinical Cases of Patients of Varying Ages Treated by a Doctor, with Non or Minimally Sedating Antihistamines for Cold, Cough and Other Symptoms of Respiratory Infection:

SMILES: O=C(O)COCCN1CCN(C(c2ccccc2)c2ccc(Cl)cc2)CC1 (stereo not drawn) [Cetirizine]
- relief of URI symptoms (Case 1: URI/cold, Cetirizine 10 mg QHS with Triamcinolone Nasal Spray): rapid relief of URI symptoms
- relief of URI symptoms (Case 2: same patient as Case 1, URI/cold and Bronchitis, Cetirizine 10 mg QHS, already taking Triamcinolone Nasal Spray): rapid relief of URI symptoms
- relief of URI symptoms (Case 3: same patient as Case 1, URI/cold, Cetirizine 10 mg QHS): rapid relief of URI symptoms
- relief of URI symptoms (Case 8: URI/cold/Allergic Rhinitis, Cetirizine 10 mg QHS): rapid relief of URI symptoms
- relief of URI and Bronchitis symptoms (Case 9: same patient as Case 8, URI/cold/Bronchitis, Allergic Rhinitis, Cetirizine 10 mg QHS and Amoxicillin Clavulanate): rapid relief of URI and Bronchitis symptoms
- relief of URI symptoms (Case 14: URI, Cetirizine Liquid 2.5 mg QHS): rapid relief of URI symptoms

SMILES: CC(C)(C(=O)O)c1ccc(C(O)CCCN2CCC(C(O)(c3ccccc3)c3ccccc3)CC2)cc1 (stereo not drawn) [Fexofenadine]
- relief of URI symptoms (Case 4: URI/cold, Fexofenadine 180 mg QD with Triamcinolone Nasal Spray): rapid relief of URI symptoms
- relief of Pharyngitis and Bronchitis symptoms (Case 10: Pharyngitis, Asthma, COPD, Fexofenadine 180 mg QD, Amoxicillin Clavulanate, Prednisone): rapid relief of Pharyngitis and Bronchitis symptoms
- relief of URI and Sinusitis symptoms (Case 11: URI/cold, rule out Sinusitis, Fexofenadine 60 mg BID, Amoxicillin Clavulanate): rapid relief of URI and Sinusitis symptoms
- relief of URI symptoms (Case 12: same patient as Case 11, Allergic Rhinitis/URI/cold, Fexofenadine 60 mg BID): rapid relief of URI symptoms
- relief of URI symptoms (Case 13: same patient as Cases 11 and 12, URI/cold, Fexofenadine 60 mg BID): rapid relief of URI symptoms

SMILES: O=C(O)COCCN1CCN([C@H](c2ccccc2)c2ccc(Cl)cc2)CC1 [Levocetirizine]
- relief of URI symptoms (Case 5: child, URI/cold, Levocetirizine 2.5 mg at bedtime, Carbinoxamine with Dextromethorphan discontinued): rapid relief of URI symptoms
- relief of cough (Case 6: same patient as Case 5, URI/cold, resumed Levocetirizine 2.5 mg at bedtime): rapid relief of cough
- relief of URI symptoms (Case 7: same patient as Case 6, Pharyngitis, URI/cold, Levocetirizine 2.5 mg at bedtime, using Mometasone Nasal Spray, asthma inhaler, Montelukast): rapid relief of URI symptoms

SMILES: CCOC(=O)N1CCC(=C2c3ccc(Cl)cc3CCc3cccnc32)CC1 [Loratidine]
- relief of URI symptoms (Case 15: URI/Pharyngitis, Loratidine 10 mg QD, Azithromycin prescribed by Pediatrician): rapid relief of URI symptoms
